Some test systems named below: OVCAR-8; HOP-62; MDA-MB-435; LOX IMVI; T47D; SNB-19; HL-60; U-251; SW-620; PC-3; TK-10; DU-145; MCF7; NCI/ADR-RES; A498; NCI-H226; IGROV-1; MDA-N; NCI-H522; UACC-257.
Common to all, as to experiment: inhibition of tumour cell growth, NCI panel, 48 h

Molecules are shown by their SMILES.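 Protocol summary: plate cells (96-well), add compound at 5 concentrations, incubate 48 h, interpolate endpoints linearly. The concentration for 50% growth inhibition is given as GI50.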 Calls of active or inactive are those of the source. Rule as the data show it: active = GI50 up to about 1.1 µM and inactive = higher. Some results are limits rather than exact numbers.

On to `Cc1[nH]c(=O)nc(S)c1C(=O)Nc1cccc2cc3ccccc3cc12`, for which the GI50 with OVCAR-8, with HOP-62, in the test on MDA-MB-435, in the test on LOX IMVI, in the test with T47D and with SNB-19 was > 100 µM (inactive) in each case. Further, the GI50 in the test on HL-60, in the test on U-251, in the test on SW-620, with PC-3, in the test with TK-10 and in the test on DU-145 was > 100 µM (inactive) each time. Moreover, the GI50 in the test with MCF7 is > 100 µM (inactive); in the test with NCI/ADR-RES it was > 100 µM (inactive); in the test with A498, > 100 µM (inactive); in the test with NCI-H226, > 100 µM (inactive); with IGROV-1, > 100 µM (inactive); in the test with MDA-N, > 10 µM (inactive).

As to `COc1ccc(/N=N/C(=N\c2ccc(F)cc2)c2ccc(N(CCC#N)CCC#N)cc2)cc1`, the GI50 in the test on OVCAR-8 is 33.5 µM (inactive); in the test on HOP-62, 41.8 µM (inactive); with MDA-MB-435, 39.2 µM (inactive); in the test on T47D it was 11.2 µM (inactive); with SNB-19, 31.9 µM (inactive); in the test with NCI-H522, 20 µM (inactive). Also, the GI50 in the test on U-251 was 13.9 µM (inactive); with SW-620 it was 41.6 µM (inactive); in the test with PC-3, 24.1 µM (inactive); in the test on TK-10, 46.5 µM (inactive); in the test on DU-145, 33 µM (inactive); in the test on MCF7, 28.4 µM (inactive). Further, the GI50 in the test with NCI/ADR-RES was > 100 µM (inactive); in the test on A498 it was 21.4 µM (inactive); in the test on NCI-H226, > 100 µM (inactive); with IGROV-1 it was 19.9 µM (inactive); in the test with MDA-N, 29.9 µM (inactive); with UACC-257, 19 µM (inactive).

Turning to `O=C1OC(C(O)CO)C(O)=C1O` (centres undefined), the GI50 in the test on OVCAR-8, in the test on HOP-62, in the test with MDA-MB-435, in the test with LOX IMVI, in the test with T47D and in the test with SNB-19 was > 100 µM (inactive) in each case. Further, the GI50 in the test with HL-60, in the test with NCI-H522, with U-251, in the test on SW-620, in the test on PC-3 and with TK-10 was > 100 µM (inactive) throughout. Besides, the GI50 in the test with DU-145, in the test with MCF7, in the test on NCI/ADR-RES, with NCI-H226, with IGROV-1 and with MDA-N was > 100 µM (inactive) in each case. Also, in the test with UACC-257, the GI50 is > 100 µM (inactive).

Take `CC(C)CCCC(C)[C@H]1CC[C@H]2[C@@H]3CC[C@H]4C[C@@H](CCC=C(c5cc(Cl)c(O)c(C(=O)OC(C)C)c5)c5cc(Cl)c(O)c(C(=O)OC(C)C)c5)CC[C@]4(C)[C@H]3CC[C@]12C` (some centres undefined): the GI50 with OVCAR-8, in the test with HOP-62, in the test on MDA-MB-435, in the test with LOX IMVI, with T47D and in the test on SNB-19 was > 50 µM (inactive) each time. For the same compound, the GI50 in the test on HL-60, with U-251, with SW-620, in the test with PC-3, in the test with DU-145 and in the test with MCF7 was > 50 µM (inactive) in each case. In addition, the GI50 in the test with NCI/ADR-RES, with A498, in the test on IGROV-1 and in the test on MDA-N was > 50 µM (inactive) in each case.

`CC1(CO)COC(C)(C)OC1`: the GI50 in the test on OVCAR-8, in the test with MDA-MB-435, in the test with LOX IMVI, with T47D, with SNB-19 and with NCI-H522 was > 100 µM (inactive) each time. Further, the GI50 in the test with U-251, in the test with SW-620, with PC-3, in the test with TK-10, in the test on DU-145 and in the test on MCF7 was > 100 µM (inactive) each time. For the same compound, the GI50 in the test with NCI/ADR-RES, in the test with A498, in the test with NCI-H226, in the test on MDA-N and in the test on UACC-257 was > 100 µM (inactive) in each case.

`Cc1cccc(NC(=S)NNC(=O)c2cc(-c3ccccc3)nc3ccccc23)c1`: the GI50 in the test on OVCAR-8 is 39.8 µM (inactive); with HOP-62, 32 µM (inactive); with MDA-MB-435 it was 28.4 µM (inactive); with T47D it was 34.1 µM (inactive); with SNB-19, 37.8 µM (inactive); in the test with NCI-H522, 26.2 µM (inactive). In addition, the GI50 is 30.1 µM (inactive) in the test with U-251; 36.3 µM (inactive) with SW-620; 27.5 µM (inactive) in the test on PC-3; 40.4 µM (inactive) in the test with TK-10; 34.4 µM (inactive) with DU-145; 20.5 µM (inactive) with MCF7. The GI50 in the test with NCI/ADR-RES is 36.7 µM (inactive); in the test with A498, 20.2 µM (inactive); in the test with NCI-H226, 34.4 µM (inactive); in the test with IGROV-1 it was 33.6 µM (inactive); in the test with MDA-N, 45.7 µM (inactive); in the test on UACC-257, 33.4 µM (inactive).

`N#CCCC1(CCC#N)S(=O)(=O)OCCOS1(=O)=O`: the GI50 in the test on OVCAR-8 was 89.1 µM (inactive); in the test with HOP-62, < 0.01 µM (active); with MDA-MB-435, 47.6 µM (inactive); in the test on LOX IMVI, 18.3 µM (inactive); in the test with T47D, 43.8 µM (inactive); with SNB-19 it was 48.8 µM (inactive). Also, the GI50 was 23.3 µM (inactive) in the test on HL-60; 27.1 µM (inactive) with NCI-H522; 24.7 µM (inactive) in the test with U-251; 24.1 µM (inactive) in the test on SW-620; 63.4 µM (inactive) in the test on PC-3; > 100 µM (inactive) in the test on TK-10. In addition, the GI50 in the test with DU-145 is 58.3 µM (inactive); in the test with MCF7, 34.2 µM (inactive); in the test on NCI/ADR-RES, 19.2 µM (inactive); in the test with NCI-H226, 41.5 µM (inactive); with MDA-N, 54.3 µM (inactive); with UACC-257 it was > 100 µM (inactive).

Consider `CC(Nc1cc(Cl)cc(Cl)c1)c1ccncc1` (centres undefined), for which the GI50 with OVCAR-8 was 18.5 µM (inactive); with HOP-62, 15.8 µM (inactive); in the test on MDA-MB-435, 22.2 µM (inactive); in the test with LOX IMVI it was 10.9 µM (inactive); with T47D, 7.85 µM (inactive); in the test on SNB-19 it was 33.8 µM (inactive). Moreover, the GI50 with NCI-H522 is 15.3 µM (inactive); in the test on U-251, 17.9 µM (inactive); in the test with SW-620 it was 17.4 µM (inactive); in the test with PC-3, 12.1 µM (inactive); with TK-10, 41.8 µM (inactive); in the test on DU-145, > 10 µM (inactive). The GI50 is 16.2 µM (inactive) in the test with MCF7; 20.5 µM (inactive) with NCI/ADR-RES; 23.3 µM (inactive) with A498; 11.5 µM (inactive) with NCI-H226; 15.4 µM (inactive) in the test with IGROV-1; 21.3 µM (inactive) with MDA-N. Besides, the GI50 with UACC-257 was 22.8 µM (inactive).

Turning to `CCOP(=O)(OCC)C(F)(F)Cc1cnc(C)c2c1COC(C)(C)O2`, the GI50 in the test with OVCAR-8, in the test with HOP-62, with MDA-MB-435, with T47D, in the test with SNB-19 and in the test with HL-60 was > 10 µM (inactive) throughout. Moreover, the GI50 with U-251, with SW-620, in the test on PC-3, with TK-10, in the test with DU-145 and in the test with MCF7 was > 10 µM (inactive) each time. Further, the GI50 in the test on NCI/ADR-RES, in the test on A498, with NCI-H226, in the test with IGROV-1, in the test on MDA-N and in the test with UACC-257 was > 10 µM (inactive) throughout.

For `CCOP(=O)(OCC)C(C#N)Cc1ccco1` (centres undefined), the GI50 in the test on OVCAR-8, with HOP-62, in the test on MDA-MB-435, in the test with LOX IMVI, in the test with T47D and in the test on SNB-19 was > 10 µM (inactive) each time. For the same compound, the GI50 was > 10 µM (inactive) in the test with HL-60; > 10 µM (inactive) in the test on U-251; > 10 µM (inactive) in the test on SW-620; > 10 µM (inactive) with PC-3; > 10 µM (inactive) in the test with TK-10; 1.98 µM (inactive) in the test with DU-145. The GI50 in the test on MCF7, with NCI/ADR-RES, in the test on A498, with NCI-H226, with IGROV-1 and in the test on MDA-N was > 10 µM (inactive) in each case. Moreover, the GI50 in the test with UACC-257 is > 10 µM (inactive).

With `CCCCCCCCNC(=O)C1=C(C)NC(C)=C(C(=O)NCCCCCCCC)C1`, the GI50 in the test on OVCAR-8 was > 100 µM (inactive); in the test on HOP-62, > 100 µM (inactive); in the test with MDA-MB-435, 44.8 µM (inactive); in the test with LOX IMVI, > 100 µM (inactive); with T47D it was 48.2 µM (inactive); in the test with SNB-19, > 100 µM (inactive). The GI50 in the test with HL-60 was > 100 µM (inactive); with NCI-H522, > 100 µM (inactive); in the test on U-251, 94.4 µM (inactive); in the test on SW-620 it was > 100 µM (inactive); with PC-3 it was 80 µM (inactive); in the test with TK-10, > 100 µM (inactive). In addition, the GI50 in the test with DU-145 was > 100 µM (inactive); with MCF7, > 100 µM (inactive); in the test on NCI/ADR-RES it was > 100 µM (inactive); with NCI-H226, > 100 µM (inactive); in the test with IGROV-1, > 100 µM (inactive); in the test on MDA-N, 89.5 µM (inactive). Also, the GI50 with UACC-257 was > 100 µM (inactive).

The values above are taken from ChEMBL document CHEMBL1201862, “PubChem BioAssay data set” (2004).
